Assay results published in patent US20210283139A1, “BIFUNCTIONAL MOLECULES FOR TARGETING UCHL5” (AMPHISTA THERAPEUTICS LTD, priority 2018, published 2021).

Experiments:
Type in all cases: cell-based
MV4-11 cells = experiment: Anti-proliferative effect, CellTiter-Glo assay; conditions: MV4-11, CellTiter-Glo, 72 h incubation, 5 μM and below
Description: The anti-proliferative effects of representative compounds were measured using the CellTiter-Glo assay (Promega). MV4-11 cells were incubated in a sterile, white, clear-bottomed 384-well cell-culture microplate (Greiner Bio-one), at 2× concentration in RPMI media and a volume of 25 μl. The next day, test compounds were serially diluted in RPMI media to 2× concentration, then added to cells to make a final volume of 50 μl. After a 72 h incubation 25 μl of CellTiter-Glo reagent was added to each well. Following 15 minute incubation the luminescence signal was read on a Pherastar FS. The final concentration of assay components are as follows: 3×10^5 cells/mL, 0.05% DMSO, 5 μM and below compound. Data (FIG. 11) was processed and dose-response curves generated using Prism 8 (Graphpad).

Brd2 = Brd2 (Homo sapiens, UniProt P25440); experiment: Concentration-dependent BET degradation, immunoblot, HEK293 cells; parameters: endogenous in cells; host or cells: HEK293; conditions: HEK293, Brd2, 6 h treatment, 1 nM-10 μM; for Dmax: read-out: Dmax (%) maximum degradation observed
Description: (§1) Cell culture. HeLa (CCL-2) and HEK293 (CRL-1573) cells were purchased from ATCC and cultured in DMEM medium (Gibco) supplemented with 10% FBS, 100 μg/mL penicillin/streptomycin and L-glutamine. Cells were grown at 37° C. and 5% CO2, and were kept no longer than 30 passages. All cell lines were routinely tested for mycoplasma contamination using MycoAlert kit from Lonza.
(§2) Immunoblotting. proteins were separated by SDS-PAGE on NuPage 4-12% Bis-Tris gels, followed by transfer to Amersham Protran 0.45 NC nitrocellulose membrane (GE Healthcare) using wet transfer. Membranes were blocked using 5% w/v milk in Tris-buffered saline (TBS) with 0.1% Tween-20. Blots were probed (overnight at 4° C.) using anti-Brd2 (Abcam ab139690, 1:2,000 dilution), anti-Brd3 (Abcam ab50818, 1:500 dilution), and anti-Brd4 (Abcam ab128874, 1:1,000 dilution) primary antibodies, as appropriate. The next day, blots were washed with TBST and incubated (1 hr at RT) with anti-Tubulin hFAB-rhodamine (BioRad, 12004166) primary antibody, and either anti-rabbit IRDye 800CW (Licor 1:10,000 dilution) or anti-mouse IRDye 800CW (Licor 1:10,000 dilution) secondary antibody. Blots were developed using a Bio-Rad ChemiDoc MP Imaging System, and band quantification was performed using Image Studio software (LiCor). Band intensities were normalized to the tubulin loading control and reported as % of the average 0.1% DMSO vehicle intensity. Degradation data was plotted and analysed using Prism (Graphpad, version 8).
(§3) HeLa (5×10^5) and HEK293 (1×10^6) cells were seeded in standard 6-well plates (2 mL medium) overnight before treatment with compounds at the desired concentration (1 nM-10 μM), with a final DMSO concentration of 0.1% v/v. After 6 h treatment time, cells were washed with DPBS (Gibco) and lysed using 85 μL RIPA buffer (Sigma-Aldrich) supplemented with cOmplete Mini EDTA-free protease inhibitor cocktail (Roche) and benzonase. Lysates were clarified by centrifugation (20,000g, 10 min, 4° C.) and the total protein content of the supernatant was quantified using a Bradford colorimetric assay. Samples were prepared using equal amounts of total protein and LDS sample buffer (Invitrogen.
(§4) Representative blots in FIG. 3 show depletion of Brd2, Brd3 and Brd4 protein levels following treatment with increasing concentrations of representative compounds. Band intensities were normalized to the β-tubulin loading control and reported as % of the average 0.1% DMSO vehicle intensity, with each point representing mean±SEM of two independent experiments (n=2). Degradation data was plotted and analysed using Prism (Graphpad, version 8)

Brd3 = Brd3 (Homo sapiens, UniProt Q15059); experiment: as above; parameters: endogenous in cells; host or cells: HEK293; conditions: HEK293, Brd3, 6 h treatment, 1 nM-10 μM; for Dmax: read-out: Dmax (%) maximum degradation observed
Description: as §1, §2, §3, §4

Brd4 (L) [1] = target: T1, Brd4 (L) (Homo sapiens, UniProt O60885); experiment: Time-dependent BET degradation, immunoblot, HEK293 cells; parameters: dose or concentration left out as unconfirmed; conditions: timecourse 0-8 h
T1 construct: endogenous in cells; host or cells: HEK293, HeLa
Description: as §1, §2
as §3, with “(3×10^5)” for “(5×10^5)”, “(0.5×10^6)” for “(1×10^6)”, “1 μM concentration,” for “the desired concentration (1 nM-10 μM),”, “incubation for the desired time (0-8 h),” for “6 h treatment time,”, “(20,000 g,” for “(20,000g,”, “(Invitrogen).” for “(Invitrogen.”
as §4, with “FIG. 4” for “FIG. 3”, “following 1 μM” for “following”, “treatment at various time points” for “treatment”, “with” for “with increasing concentrations of”, “version 8).” for “version 8)”
(§5) T½ (h) is the time required to deplete 50% of the protein relative to DMSO

Brd4 (S) [2] = target: T2, Brd4 (S) (Homo sapiens, UniProt O60885); experiment: as above; parameters: dose or concentration left out as unconfirmed; conditions: timecourse 0-8 h
T2 construct: endogenous in cells; host or cells: HEK293, HeLa
Description: as §1, §2
as §3, with “(3×10^5)” for “(5×10^5)”, “(0.5×10^6)” for “(1×10^6)”, “1 μM concentration,” for “the desired concentration (1 nM-10 μM),”, “incubation for the desired time (0-8 h),” for “6 h treatment time,”, “(20,000 g,” for “(20,000g,”, “(Invitrogen).” for “(Invitrogen.”
as §4, with “FIG. 4” for “FIG. 3”, “following 1 μM” for “following”, “treatment at various time points” for “treatment”, “with” for “with increasing concentrations of”, “version 8).” for “version 8)”
as §5

Brd4 (L) [3] = target: T1, Brd4 (L); experiment: Concentration-dependent BET degradation, immunoblot, HeLa cells; conditions: 6 h treatment, 1 nM-10 μM; for Dmax: read-out: Dmax (%) maximum degradation observed
Description: as §1, §2, §3, §4

Brd4 (S) [4] = target: T2, Brd4 (S); experiment: as above; conditions: 6 h treatment, 1 nM-10 μM; for Dmax: read-out: Dmax (%) maximum degradation observed
Description: as §1, §2, §3, §4

Brd4 = target: T3, Brd4 (Homo sapiens, UniProt O60885); experiment: Negative SAR: Brd4 immunoblot in HEK293 cells, active vs negative control; conditions: HEK293, 1 μM, 6 h, three independent treatments
T3 construct: endogenous in cells; host or cells: HEK293, HAP1, MV4-11
Description: as §2
HEK293 (1×10^6) cells incubated with DMSO, 1 μM 05IB11 or 1 μM 05IB6 for 6 h with a final DMSO concentration of 0.1% v/v. Cells from three independent treatments (n=3) were lysed with RIPA buffer and immunoblotted for Brd4 and β-tubulin.

Brd3, sequence (Q15059 whole entry): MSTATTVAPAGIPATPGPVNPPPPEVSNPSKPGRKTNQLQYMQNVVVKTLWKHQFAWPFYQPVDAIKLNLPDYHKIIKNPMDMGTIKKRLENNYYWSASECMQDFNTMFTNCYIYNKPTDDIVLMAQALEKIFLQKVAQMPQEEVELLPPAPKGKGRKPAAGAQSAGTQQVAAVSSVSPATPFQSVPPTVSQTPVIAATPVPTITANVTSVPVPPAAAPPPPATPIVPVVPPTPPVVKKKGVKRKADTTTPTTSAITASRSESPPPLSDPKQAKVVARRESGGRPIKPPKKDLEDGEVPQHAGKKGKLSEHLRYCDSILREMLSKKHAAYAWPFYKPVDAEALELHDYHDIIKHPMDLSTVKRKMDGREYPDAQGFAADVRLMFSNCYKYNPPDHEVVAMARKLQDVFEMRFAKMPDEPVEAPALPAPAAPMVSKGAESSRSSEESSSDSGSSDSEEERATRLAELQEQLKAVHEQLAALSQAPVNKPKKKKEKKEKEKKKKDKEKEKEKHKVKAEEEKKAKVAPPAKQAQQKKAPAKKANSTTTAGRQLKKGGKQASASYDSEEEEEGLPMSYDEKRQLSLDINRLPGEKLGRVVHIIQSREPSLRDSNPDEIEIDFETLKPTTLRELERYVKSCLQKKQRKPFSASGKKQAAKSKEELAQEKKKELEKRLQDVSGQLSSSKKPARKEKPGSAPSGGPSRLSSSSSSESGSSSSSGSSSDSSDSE
Brd2, sequence (P25440 whole entry): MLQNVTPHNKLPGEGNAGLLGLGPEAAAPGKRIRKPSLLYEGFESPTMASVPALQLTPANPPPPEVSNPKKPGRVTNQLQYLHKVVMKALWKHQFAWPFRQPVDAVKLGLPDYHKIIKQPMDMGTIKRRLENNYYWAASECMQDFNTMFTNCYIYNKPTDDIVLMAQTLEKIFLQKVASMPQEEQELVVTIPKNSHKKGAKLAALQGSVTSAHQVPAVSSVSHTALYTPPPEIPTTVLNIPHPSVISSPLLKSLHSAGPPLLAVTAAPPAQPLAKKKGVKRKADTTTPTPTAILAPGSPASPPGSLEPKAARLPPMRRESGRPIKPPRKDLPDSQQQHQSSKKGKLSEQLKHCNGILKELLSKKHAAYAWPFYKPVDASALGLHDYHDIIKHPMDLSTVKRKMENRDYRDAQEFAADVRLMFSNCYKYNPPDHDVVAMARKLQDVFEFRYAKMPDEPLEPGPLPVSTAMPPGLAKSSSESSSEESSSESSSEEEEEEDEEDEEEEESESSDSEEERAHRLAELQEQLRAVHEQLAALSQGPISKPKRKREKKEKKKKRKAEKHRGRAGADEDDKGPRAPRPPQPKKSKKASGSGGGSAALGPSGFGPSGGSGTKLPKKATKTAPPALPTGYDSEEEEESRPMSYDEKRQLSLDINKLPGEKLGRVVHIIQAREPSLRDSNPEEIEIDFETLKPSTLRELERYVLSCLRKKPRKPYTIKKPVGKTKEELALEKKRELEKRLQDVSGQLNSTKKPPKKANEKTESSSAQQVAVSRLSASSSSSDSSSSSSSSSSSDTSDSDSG

Row | SMILES | cytotoxicity profile (anti-proliferative effect) (MV4-11 cells) | DC50 (Brd2) [nM] | Dmax (Brd2) [%] | DC50 (Brd3) [nM] | Dmax (Brd3) [%] | Dmax (Brd4 (L) [1]) [%] | Dmax (Brd4 (S) [2]) [%] | DC50 (Brd4 (L) [3]) [nM] | Dmax (Brd4 (L) [3]) [%] | DC50 (Brd4 (S) [4]) [nM] | Dmax (Brd4 (S) [4]) [%] | Brd4 levels (Brd4)
1 | CCCC(NC(=O)/C(C#N)=C/c1cccc(Br)n1)c1ccc(OCC=NOCC(=O)NCCOCCOCCOCCOCCOCCNC(=O)c2ccc3c(c2)[C@H](Nc2ccc(Cl)cc2)C[C@H](C)N3C(C)=O)cc1 (stereo partly shown) [Example 05IB3] | distinct from I-BET726 and inactive 05IB11 | 51 to 500 | ≥ 71 | ≤ 50 | ≥ 71 | 96 | 100 | 51 to 500 | ≥ 71 | ≤ 50 | ≥ 71 | 
2 | CCCC(NC(=O)/C(C#N)=C/c1cccc(Br)n1)c1ccc(OCCOCCOCCOCCOCCOCCOCCNC(=O)c2ccc(-c3ccc4c(c3)[C@H](Nc3ccc(Cl)cc3)C[C@H](C)N4C(C)=O)cc2)cc1 (stereo partly shown) [Example 05IB6] | distinct from I-BET726 and inactive 05IB11 | 51 to 500 | 26 to 50 | 51 to 500 | 51 to 70 | 100 | 97 | 51 to 500 | ≥ 71 | ≤ 50 | ≥ 71 | significant depletion
3 | CCCC(NC(=O)/C(C#N)=C/c1nccs1)c1ccc(OCCOCCOCCOCCOCCOCCOCCNC(=O)c2ccc(-c3ccc4c(c3)[C@H](Nc3ccc(Cl)cc3)C[C@H](C)N4C(C)=O)cc2)cc1 (stereo partly shown) [Example 05IB9] | distinct from I-BET726 and inactive 05IB11 | ≤ 50 | 51 to 70 | ≤ 50 | 51 to 70 | 96 | 96 | ≤ 50 | ≥ 71 | ≤ 50 | ≥ 71 | 
